Laboratory results: patent US20090203577A1 (EXELIXIS, INC., priority 2005, published 2009)
Converted amounts (≈) assume the structure as drawn.

Tests used:
[1] = tested on: patients with hypertriglyceridemia; conditions: cited from earlier work
[2] = tested on: male LDLR−/− mice; assay: Compound effects in diet-induced hyperlipidemic LDLR-/- mice (plasma triglyceride and cholesterol); format: in vivo, mouse
Description: Young adult male mice (˜8 weeks of age) were purchased from conventional vendors and group housed (3-4/cage) with ad libitum access to chow and water, in a temperature- and light-controlled vivarium (lights on at 06:00 hours, off at 18:00 hours). Compounds were administered daily by oral gavage in the morning (˜08:00 hrs), in a final volume of 0.1 ml/mouse, with the first dose of compound delivered on study day 0. Compounds were solubilized by gentle mixing in PEG400:Tween80 (4:1) for at least several hours and usually overnight prior to initiation of dosing. When necessary, solutions were sonicated briefly to ensure complete compound solubilization.
Blood samples (˜0.15 ml/mouse) were obtained from the retro-orbital sinus of non-fasted isoflurane-anesthetized mice, 3 hours after drug dosing. Blood samples were collected into heparin-coated tubes, and plasma was recovered following centrifugation. Plasma total cholesterol and triglyceride levels were determined by […] enzymatic commercially available assays that were adapted to 96-well plate formats. Plasma HDL cholesterol (HDL-C) was determined by removing non-HDL-C from the plasma with a precipitating reagent, and then determining the plasma cholesterol levels in the remaining HDL-C fraction. Plasma triglycerides concentrations, determined from a blood sample obtained in the 24 hours prior to the first dose, were used to group the mice such that the pre-study triglyceride levels between groups were equivalent prior to initiation of the dosing regimen.
Male LDLR^−/− mice (JAX Mice, Bar Harbor, Me.) consumed a purified “Western” diet (˜21% fat, 0.02% cholesterol w/w) ad libitum, for two weeks prior to and during treatment with Compound C daily by oral gavage at a dose of 10 mg/kg/day for 7 days (n=9-10/group).
In a separate study utilizing the same mouse model ([…]) subjected to the dietary lead-in for 8 weeks, LDLR^−/− mice were treated with Compound B at a dose of 10 mg/kg/day for 6 weeks.

[3] = physchem; conditions: pH 7.4, aqueous buffer, kinetic from dmso stock
[4] = molecular target: T1, human farnesoid X receptor (Homo sapiens, UniProt Q96RI1); assay: FXR in vitro assays (farnesoid X receptor/ECREx7 co-transfection assay, TR-FRET assay), Table I; format: cell-based; conditions: for EC50: agonist activity, one or more of the in vitro assays, read-out: EC50; for Emax: read-out: % Efficacy
T1 construct: CMX-farnesoid X receptor (full length human farnesoid X receptor); expressed in transfected cells; host or cells: CV-1 African Green Monkey Kidney cells
T1 sequence (Q96RI1 1-472 isoform Q96RI1-2): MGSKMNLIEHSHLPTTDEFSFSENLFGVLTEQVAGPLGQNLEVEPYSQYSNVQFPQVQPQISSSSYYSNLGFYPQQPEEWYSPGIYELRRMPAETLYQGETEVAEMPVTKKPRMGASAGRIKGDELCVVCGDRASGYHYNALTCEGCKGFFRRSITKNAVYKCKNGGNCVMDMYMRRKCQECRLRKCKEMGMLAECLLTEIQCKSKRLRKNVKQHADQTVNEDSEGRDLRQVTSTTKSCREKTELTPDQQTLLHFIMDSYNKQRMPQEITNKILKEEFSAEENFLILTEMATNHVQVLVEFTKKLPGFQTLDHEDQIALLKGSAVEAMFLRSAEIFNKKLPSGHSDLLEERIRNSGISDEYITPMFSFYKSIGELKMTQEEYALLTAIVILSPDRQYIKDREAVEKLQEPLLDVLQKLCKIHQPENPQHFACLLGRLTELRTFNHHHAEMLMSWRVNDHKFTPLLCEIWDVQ
T1 sequence (P19793 1-462 partner): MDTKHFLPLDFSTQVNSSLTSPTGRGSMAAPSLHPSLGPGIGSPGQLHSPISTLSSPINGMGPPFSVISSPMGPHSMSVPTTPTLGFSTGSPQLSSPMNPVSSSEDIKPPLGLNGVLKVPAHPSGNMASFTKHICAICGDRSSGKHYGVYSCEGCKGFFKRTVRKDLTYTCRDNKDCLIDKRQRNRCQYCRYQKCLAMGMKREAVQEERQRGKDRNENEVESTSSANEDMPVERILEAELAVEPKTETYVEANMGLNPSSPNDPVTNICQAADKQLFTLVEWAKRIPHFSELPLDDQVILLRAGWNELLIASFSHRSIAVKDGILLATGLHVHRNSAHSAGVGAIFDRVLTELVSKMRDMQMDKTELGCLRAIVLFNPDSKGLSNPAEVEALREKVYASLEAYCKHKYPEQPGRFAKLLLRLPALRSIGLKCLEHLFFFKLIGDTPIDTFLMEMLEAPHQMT
Procedure, shortened: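 CV-1 monkey kidney cells transfected for an FXR/ECREx7 luciferase co-transfection reporter; luciferase read 18-20 h later in lysates. 8-point dose-response at ½-log spacing, 4 wells per point; EC50/IC50 from four-parameter Hill fit, averaged over at least 3 independent experiments.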

[5] = Western diet 8 weeks lead-in, 10 mg/kg/day for 6 weeks

Structure (SMILES)	solubility kinetic at 1.5 h [3]	EC50 [4]	Emax [4]	further results
C[C@H](CCC(=O)O)[C@H]1CC[C@H]2[C@@H]3[C@H](O)C[C@@H]4C[C@H](O)CC[C@]4(C)[C@H]3CC[C@]12C [CDCA, chenodeoxycholic acid]				plasma triglyceride levels [1]: significantly lowers
CCOC(=O)C1=CN(C(=O)c2ccc(F)c(F)c2)CC(C)(C)c2c1[nH]c1ccccc21 [Compound B, Ethyl 3-(3,4-difluorobenzoyl)-1,1-dimethyl-1,2,3,6-tetrahydro-azepino[4,5-b]indole-5-carboxylate]				plasma cholesterol concentrations [2, 5]: lowered; plasma triglyceride concentrations [2, 5]: lowered
CC(C)OC(=O)C1=CN(C(=O)c2ccc(F)c(F)c2)CC(C)(C)c2c1[nH]c1ccccc21 [Compound C, isopropyl 3-(3,4-difluorobenzoyl)-1,1-dimethyl-1,2,3,6-tetrahydroazepino[4,5-b]indole-5-carboxylate]				plasma triglyceride concentrations ([2]; Western diet 2 weeks lead-in, 10 mg/kg/day oral gavage, study day 7): reduced plasma triglyceride concentrations to the level observed prior to introduction of the high-fat chow; lowering of plasma total cholesterol levels ([2]; Western diet 2 weeks lead-in, 10 mg/kg/day oral gavage, study day 7, p<0.05 vs. vehicle): ~40%; plasma lipid profiles ([2]; daily dosing throughout the 6 weeks of study, continued Western diet): sustained normalization
CC(C)OC(=O)C1=CN(C(=O)c2cc(C(F)(F)F)cc(C(F)(F)F)c2)CC(C)(C)c2c1[nH]c1ccccc21 [Example 135, 1-methylethyl 3-{[3,5-bis(trifluoromethyl)phenyl]carbonyl}-1,1-dimethyl-1,2,3,6-tetrahydroazepino[4,5-b]indole-5-carboxylate]	1 to 10 µM (≈ 0.538 to 5.38 µg/mL)	10 to 100 nM	> 100%	
CC(C)OC(=O)C1=CN(C(=O)c2cc(C(F)(F)F)ccc2C(F)(F)F)CC(C)(C)c2c1[nH]c1ccccc21 [Example 137, 1-methylethyl 3-{[2,5-bis(trifluoromethyl)phenyl]carbonyl}-1,1-dimethyl-1,2,3,6-tetrahydroazepino[4,5-b]indole-5-carboxylate]	0.1 to 1 µM (≈ 0.0538 to 0.538 µg/mL)	100 to 1000 nM	> 100%	
CC(C)OC(=O)C1=CN(C(=O)c2ccc(C(F)(F)F)c(F)c2F)CC(C)(C)c2c1[nH]c1ccccc21 [Example 138, 1-methylethyl 3-{[2,3-difluoro-4-(trifluoromethyl)phenyl]car-bonyl}-1,1-dimethyl-1,2,3,6-tetrahydroazepino[4,5-b]indole-5-carboxylate]	0.1 to 1 µM (≈ 0.0506 to 0.506 µg/mL)	10 to 100 nM	> 100%	
CC(C)OC(=O)C1=CN(C(=O)c2cccc(O)c2)CC(C)(C)c2c1[nH]c1ccccc21 [Example 139, 1-methylethyl 3-[(3-hydroxyphenyl)carbonyl]-1,1-dimethyl-1,2,3,6-tetrahydroazepino[4,5-b]indole-5-carboxylate]	1 to 10 µM (≈ 0.418 to 4.18 µg/mL)	10 to 100 nM	> 100%	
CC(C)OC(=O)C1=CN(C(=O)c2cccc(OCCN(C)C)c2)CC(C)(C)c2c1[nH]c1ccccc21 [Example 140, 1-methylethyl 3-[(3-{[2-(dimethylamino)ethyl]oxy}phenyl)carbonyl]-1,1-dimethyl-1,2,3,6-tetrahydroazepino[4,5-b]indole-5-carboxylate]	> 10 µM		> 100%	
CC(=O)N1CCN(Cc2cccc(C(=O)N3C=C(C(=O)OC(C)C)c4[nH]c5ccccc5c4C(C)(C)C3)c2)CC1 [Example 146, 1-methylethyl 3-({3-[(4-acetylpiperazin-1-yl)methyl]phenyl}carbonyl)-1,1-dimethyl-1,2,3,6-tetrahydroazepino[4,5-b]indole-5-carboxylate]	1 to 10 µM (≈ 0.543 to 5.43 µg/mL)	100 to 1000 nM	> 100%	
CC1(C)CN(C(=O)c2ccc(F)c(F)c2)C=C(C(=O)OC[C@@H](O)CO)c2[nH]c3ccccc3c21 [Example 171, (2S)-2,3-dihydroxypropyl-3-[(3,4-difluorophenyl)carbonyl]-1,1-dimethyl-1,2,3,6-tetrahydroazepino[4,5-b]indole-5-carboxylate]	> 10 µM	10 to 100 nM	> 100%	
CC(=O)N1CCCN(Cc2cccc(C(=O)N3C=C(C(=O)OC(C)C)c4[nH]c5ccccc5c4C(C)(C)C3)c2)CC1 [Example 177, 1-methylethyl 3-({3-[(4-acetyl-1,4-diazepan-1-yl)methyl]phenyl}carbonyl)-1,1-dimethyl-1,2,3,6-tetrahydroazepino[4,5-b]indole-5-carboxylate]	1 to 10 µM (≈ 0.557 to 5.57 µg/mL)	100 to 1000 nM	> 100%	
CCNC(=O)N1CCN(Cc2cccc(C(=O)N3C=C(C(=O)OC(C)C)c4[nH]c5ccccc5c4C(C)(C)C3)c2)CC1 [Example 185, 1-methylethyl 3-{[3-({4-[(ethylamino)carbonyl]piper-azin-1-yl}methyl)phenyl]carbonyl}-1,1-dimethyl-1,2,3,6-tetrahydroazepino[4,5-b]indole-5-carboxylate]	1 to 10 µM (≈ 0.572 to 5.72 µg/mL)	100 to 1000 nM	> 100%	
CC(CO)OC(=O)C1=CN(C(=O)c2ccc(F)c(F)c2)CC(C)(C)c2c1[nH]c1ccccc21 (centres unmarked) [Example 193, 2-hydroxy-1-methylethyl 3-[(3,4-difluorophenyl)carbonyl]-1,1-dimethyl-1,2,3,6-tetrahydroazepino[4,5-b]indole-5-carboxylate]	1 to 10 µM (≈ 0.454 to 4.54 µg/mL)	10 to 100 nM	> 100%	
CC1(C)CN(C(=O)c2ccc(F)c(F)c2)C=C(C(=O)OCCO)c2[nH]c3ccccc3c21 [Example 196, 2-hydroxyethyl 3-[(3,4-difluorophenyl)carbonyl]-1,1-dimethyl-1,2,3,6-tetrahydroazepino[4,5-b]indole-5-carboxylate]	1 to 10 µM (≈ 0.44 to 4.4 µg/mL)	10 to 100 nM	> 100%	
